From US11491157B2, “Cycloalkyl substituted pyrazolopyrimidines having activity against RSV” (priority 2018, dated 2022)

How the values were obtained:
in vitro = details: human
Experimental: (§1) Black 384-well clear-bottom microtiter plates (Corning, Amsterdam, The Netherlands) were filled via acoustic drop ejection using the echo liquid handler (Labcyte, Sunnyvale, Calif.). 200 nL of compound stock solutions (100% DMSO) were transferred to the assay plates. 9 serial 4-fold dilutions of compound were made, creating per quadrant the same compound concentration. The assay was initiated by adding 10 μL of culture medium to each well (RPMI medium without phenol red, 10% FBS-heat inactivated, 0.04% gentamycin (50 mg/mL). All addition steps are done by using a multidrop dispenser (Thermo Scientific, Erembodegem, Belgium). Next, rgRSV224 virus (MOI=1) diluted in culture medium was added to the plates. rgRSV224 virus is an engineered virus that includes an additional GFP gene (Hallak L K, Spillmann D, Collins P L, Peeples M E. Glycosaminoglycan sulfation requirements for respiratory syncytial virus infection; Journal of virology (2000), 74(22), 10508-13) and was in-licensed from the NIH (Bethesda, Md., USA). Finally, 20 μL of a HeLa cell suspension (3,000 cells/well) were plated. Medium, virus- and mock-infected controls were included in each test. The wells contain 0.05% DMSO per volume. Cells were incubated at 37° C. in a 5% CO2 atmosphere. Three days post-virus exposure, viral replication was quantified by measuring GFP expression in the cells by an in house developed MSM laser microscope (Tibotec, Beerse, Belgium). The EC50 was defined as the 50% inhibitory concentration for GFP expression. In parallel, compounds were incubated for three days in a set of white 384-well microtiter plates (Corning) and the cytotoxicity of compounds in HeLa cells was determined by measuring the ATP content of the cells using the ATPlite kit (Perkin Elmer, Zaventem, Belgium) according to the manufacturer's instructions. The CC50 was defined as the 50% concentration for cytotoxicity.

rgRSV224 virus = assay: Antiviral activity: rgRSV224 (GFP) replication in HeLa cells; details: human respiratory syncytial virus, 72 h, read-out: RSV HELA EC50
Experimental: as §1

[1] = Cytotoxicity in HeLa cells (ATP content, ATPlite kit); details: human
Experimental: as §1

Compound	CC50 at 3 days (in vitro) [nM]	melting point [°C]	EC50 (rgRSV224 virus) [nM]	CC50 at 3 days [1] [nM]
C[C@@H]1c2ccccc2CCN1C(=O)c1cc(C2CC2)n2nc(-c3ccc([C@H]4C[C@@H]4C(=O)NS(=O)(=O)C4CC4)cc3F)cc2n1 [Compound 27, (1S,2S)—N-(Cyclopropanesulfonyl)-2-(4-{7-cyclopropyl-5-[(1R)-1-methyl-1,2,3,4-tetrahydroisoquinoline-2-carbonyl]pyrazolo[1,5-a]pyrimidin-2-yl}-3-fluorophenyl)-cyclopropane-1-carboxamide]	55800	177.21	40	–
C[C@@H]1c2ccccc2CCN1C(=O)c1cc(C2CC2)n2nc(-c3ccc([C@H]4C[C@@H]4NC(=O)NC4CC4)cc3F)cc2n1 [Compound 30, 1-Cyclopropyl-3-[(1S,2R)-2-(4-{7-cyclopropyl-5-[(1R)-1-methyl-1,2,3,4-tetrahydro-isoquinoline-2-carbonyl]pyrazolo[1,5-a]pyrimidin-2-yl}-3-fluorophenyl)cyclopropyl]urea]	40800	213.73	49	–
CC(=O)N[C@H]1C[C@@H]1c1ccc(-c2cc3nc(C(=O)N4CCc5ccccc5[C@H]4C)cc(C4CC4)n3n2)c(F)c1 [Compound 34, N-[(1S,2R)-2-(4-{7-Cyclopropyl-5-[(1R)-1-methyl-1,2,3,4-tetrahydroisoquinoline-2-carbonyl]pyrazolo[1,5-a]pyrimidin-2-yl}-3-fluorophenyl)cyclopropyl]acetamide]	> 100000	232.53	22	–
C[C@@H]1c2ccccc2CCN1C(=O)c1cc(C2CC2)n2nc(-c3ccc([C@H]4C[C@@H]4NP(C)(C)=O)cc3F)cc2n1 [Compound 37, (1R)-2-(7-Cyclopropyl-2-{4-[(1R,2S)-2-[(dimethylphosphoryl)amino]cyclopropyl]-2-fluorophenyl}pyrazolo[1,5-a]pyrimidine-5-carbonyl)-1-methyl-1,2,3,4-tetrahydroisoquinoline]	–	–	63	41600
C[C@@H]1c2ccccc2CCN1C(=O)c1cc(C2CC2)n2nc(-c3ccc([C@H]4C[C@@H]4OC(N)=O)cc3F)cc2n1 [Compound 39, (1S,2R)-2-(4-{7-Cyclopropyl-5-[(1R)-1-methyl-1,2,3,4-tetrahydroisoquinoline-2-carbonyl]pyrazolo[1,5-a]pyrimidin-2-yl}-3-fluorophenyl)cyclopropyl carbamate]	12500	297.87	82	–
CNC(=O)O[C@H]1C[C@@H]1c1ccc(-c2cc3nc(C(=O)N4CCc5ccccc5[C@H]4C)cc(C4CC4)n3n2)c(F)c1 [Compound 40, (1S,2R)-2-(4-{7-Cyclopropyl-5-[(1R)-1-methyl-1,2,3,4-tetrahydroisoquinoline-2-carbonyl]pyrazolo[1,5-a]pyrimidin-2-yl}-3-fluorophenyl)cyclopropyl N-methylcarbamate]	> 100000	274.46	138	–
C[C@@H]1c2ccccc2CCN1C(=O)c1cc(C2CC2)n2nc(-c3ccc([C@H]4C[C@@H](CO)C4)cc3F)cc2n1 [Compound 42, [cis-3-(4-{7-Cyclopropyl-5-[(1R)-1-methyl-1,2,3,4-tetrahydroisoquinoline-2-carbonyl]-pyrazolo[1,5-a]pyrimidin-2-yl}-3-fluorophenyl)cyclobutyl]methanol]	69200	129.63	263	–
C[C@@H]1c2ccccc2CCN1C(=O)c1cc(C2CC2)n2nc(-c3ccc([C@H]4C[C@@H](COC(N)=O)C4)cc3F)cc2n1 [Compound 44, [cis-3-(4-{7-Cyclopropyl-5-[(1R)-1-methyl-1,2,3,4-tetrahydroisoquinoline-2-carbonyl]pyrazolo[1,5-a]pyrimidin-2-yl}-3-fluorophenyl)cyclobutyl]methyl carbamate]	> 100000	300.97	332	–
CNC(=O)C[C@H]1C[C@@H](c2ccc(-c3cc4nc(C(=O)N5CCc6ccccc6[C@H]5C)cc(C5CC5)n4n3)c(F)c2)C1 [Compound 48, N-methyl-2-[cis-3-(4-{7-cyclopropyl-5-[(1R)-1-methyl-1,2,3,4-tetrahydroisoquinoline-2-carbonyl]pyrazolo[1,5-a]pyrimidin-2-yl}-3-fluorophenyl)cyclobutyl]acetamide]	23900	143.95	151	–
